The text below walks through data of patent US20120231042A1, “Pharmaceutical Formulation For Producing Rapidly Disintegrating Tablets” (BASF SE, priority 2011, published 2012).

A short description of the data set: Film formation test. The format is physicochemical. To be noted: assessed visually; for Clear film / Notes (film-forming classification): 15% by weight solution in water, dried at 45° C. for 4 hours; for Structure formed after drying (film-forming property): 15% solution dried 4 hours at 45° C., statement in description. On the procedure:
In various embodiments, to determine the film-forming property, 30.0 g of a 15% strength by weight solution of the sugar or sugar alcohol in water are first prepared at 23° C. This solution is poured out onto glass plates with an indentation (dimension: 20 cm×6.5 cm, indentation 0.3 cm) and dried for 4 hours at 45° C. and then assessed visually. Measurement can take place in ambient air. The ambient air here has a relative humidity of about 40% at 23° C. Drying can take place for example, on the heating plate of a film-drawing instrument. A suitable film-drawing instrument is for example a commercial instrument such as the COATMASTER 509 MC.
Products which are present after the drying operation as a clear film or covering are referred to as “film-forming” If crystals are visible and the mass appears powdery, the substances are classified as “non-film-forming”
To determine the film-forming property, firstly, at 23° C., 30.0 g of a 15% strength by weight solution of the sugar or sugar alcohol in water were prepared. This solution was poured onto glass plates with an indentation (dimension: 20 cm×6.5 cm, indentation 0.3 cm) and dried at 45° C. for 4 hours and then assessed visually. […] Drying was carried out on a heating plate of the film-drawing instrument COATMASTER 509 MC (Erichsen).

Turning to `OC[C@@H](O)[C@@H](O[C@H]1O[C@H](CO)[C@@H](O)[C@H](O)[C@H]1O)[C@H](O)[C@@H](O)CO` [Maltitol], the Clear film result is “Yes”, the “Notes (film-forming classification)” value was “Film-forming” and the “Structure formed after drying (film-forming property)” value (“Structure formed after drying” below) was “clear film/covering”.

As to `OC[C@H]1O[C@@H](O[C@H]2[C@H](O)[C@@H](O)C(O)O[C@@H]2CO)[C@H](O)[C@@H](O)[C@H]1O` (stereo partly drawn) [lactose], the “Structure formed after drying” value is on record as “clear film/covering”.

Turning to `OC[C@H]1O[C@H](O[C@H]2O[C@H](CO)[C@@H](O)[C@H](O)[C@H]2O)[C@H](O)[C@@H](O)[C@@H]1O` [trehalose], the “Structure formed after drying” value was “clear film/covering”.

For `OC[C@@H](O)[C@@H](O)[C@H](O)[C@@H](O)CO` [Sorbitol], the Clear film entry was “Yes”, the “Notes (film-forming classification)” value is “Film-forming” and the “Structure formed after drying” value is recorded as “clear film/covering”.

Regarding `OC[C@@H](O)[C@@H](O)[C@H](O)[C@H](O)CO` [Mannitol], the Clear film entry is reported as “No”, the “Notes (film-forming classification)” value was “Crystals; non-film-forming” and the “Structure formed after drying” value was “crystals or a powdery structure”.

Palatinit: the Clear film result is listed as “Yes”, the “Notes (film-forming classification)” value is given as “Film-forming” and the “Structure formed after drying” value is reported as “clear film/covering”.

On to `OC[C@@H](O)[C@@H](O[C@@H]1O[C@H](CO)[C@H](O)[C@H](O)[C@H]1O)[C@H](O)[C@@H](O)CO` [Lactitol], for which the Clear film result was “Yes”, the “Notes (film-forming classification)” value is “Film-forming” and the “Structure formed after drying” value was “clear film/covering”.

On to `OC[C@@H](O)[C@@H](O)CO` [Erythritol], for which the Clear film result is reported as “No”, the “Notes (film-forming classification)” value is reported as “Crystals; non-film-forming” and the “Structure formed after drying” value was “crystals or a powdery structure”.

Turning to `OC[C@H]1O[C@@](CO)(O[C@H]2O[C@H](CO)[C@@H](O)[C@H](O)[C@H]2O)[C@@H](O)[C@@H]1O` [sucrose], the “Structure formed after drying” value is recorded as “clear film/covering”.

With `OC[C@@H](O)[C@H](O)[C@@H](O)CO` [Xylitol], the Clear film entry is given as “No”, the “Notes (film-forming classification)” value is listed as “Crystals; non-film-forming” and the “Structure formed after drying” value was “crystals or a powdery structure”.
